Tested on: bacteria in clinical bovine mastitis milk samples
Test: Combined bacteria identification and antimicrobial susceptibility test (colour of wells, MIC) on clinical bovine mastitis milk samples
Assay type: cell-based
Procedure: Clinical bovine mastitis milk samples were collected by a vet clinic in South Island, New Zealand. Samples were stored in the freezer for several months and shipped frozen to the testing facility. In this Example, the term “clinical” means that dairy cows had clinical symptoms of an udder infection e.g. cow behaved unusual, milk clots, swollen udder among other typical symptoms. Testing was executed in microwell plate comprising of 24 wells (3×8 wells).
In addition, 20 ul of clinical mastitis sample was added to each well with a laboratory pipette.
(§1) Abbreviations • 1. 80 ul GC+10 ul Tell: 80 ul Giolitti Cantoni base broth+10 ul Tellurite solution (1%); • 2. 80 ul TSB/Esc/Fer Cit: 80 ul Tryptic soy broth containing 0.25% Esculin and 0.125% Ammonium Ferric Citrate; • 3. 80 ul TSB/Esc/Fer Cit+10 ul Genta: 80 ul Tryptic soy broth containing 0.25% Esculin and 0.125% Ammonium Ferric Citrate+10 ul of Gentamycin solution 10 mg/ml; • 4. 80 ul McC/PR25: 80 ul MacConkey broth (single strength) containing 0.0125% phenol red; and • 5. 80 ul TSB/PR25: 80 ul Tryptic soy broth containing 0.0125% phenol red. Bacteria Identification
Columns A to C and rows 1 and 2 were used for bacteria identification. A1: coagulase positive Staph; A2: Staphylococci; B1: Strep group D; B2: Strep group D; C1: general enrichment media (gram+ and gram-bacteria); C2: coliform bacteria.
Column A3 to A8: serial dilution of benzyl penicillin as potassium. Column B3 to B8: serial dilution of ceftiofur as hydrochloride. Column C3 to C8: serial dilution of cloxacillin as sodium. Antibiotic concentrations are listed as free form ranging between 4 ug/ml to 0.05 ug/ml.
Minimum inhibitory substance concentration (MIC) is here defined as the concentration if a colour change occurs between two wells (one well remains red with drug concentration 1, the other one yellow with drug concentration 2, whereas drug concentration 1 is larger than drug concentration 2) then the MIC is the value of drug concentration 1.
Table 21 indicates the microwell plate configuration #1; Drugs: Benzylpenicillin as potassium; Cloxacillin as sodium; Ceftiofur as hydrochloride; Drug concentration in each well (A3 to C8) is based on 80 μl composition+10 μl drug solution+20 μl clinical mastitis milk sample and equivalent to listed drug concentration in μg/ml; 20 ul of clinical bovine mastitis milk sample was added to each well (A1 to C8).
In addition, each well received one drop of clinical sample from a transfer pipette which was on average about 35 mg. This was determined through weighing the well plate prior and after the addition of clinical mastitis samples. This weight was then divided by 24.
as §1, with “•” for “Abbreviations •”, “red.” for “red. Bacteria Identification”
Columns A to C and rows 1 and 2 were used for bacteria identification. A1: coagulase positive Staph; A2: Staphylococci; B1: Strep Group D; B2: -; C1: general enrichment media (gram+ and gram-); C2: coliform bacteria.
Column A3 to A8: serial dilution of benzyl penicillin as potassium. Drug concentrations given as free form ranging between 4 ug/ml to 0.05 ug/ml. Column B3 to B8: serial dilution of ceftiofur as hydrochloride. Drug concentrations given as free form ranging between 4 ug/ml to 0.05 ug/ml. Column C3 to C8: serial dilution of cloxacillin as sodium. Drug concentrations given as free form ranging between 4 ug/ml to 0.05 ug/ml.

**Q.** With `CO/N=C(\C(=O)N[C@@H]1C(=O)N2C(C(=O)O)=C(CSC(=O)c3ccco3)CS[C@H]12)c1csc(N)n1` [ceftiofur] as the compound, how does the “Colour of media in each well” value (ID 5 to 8, T = 0 h (prior incubation, reference), plate configuration #2, drug 2 μg/ml) read?
**A.** The value was “red”.

**Q.** What about the “Colour of media in each well” value (ID 5 to 8, T = 0 h (prior incubation, reference), plate configuration #2, drug 4 μg/ml) of the same compound?
**A.** Its value is “red”.

**Q.** And the “Colour of media in each well” value (ID 6, T = 23h, 37° C., plate configuration #2, drug 0.05 μg/ml (Table 31))?
**A.** Its value is “yellow”.

**Q.** And the “Colour of media in each well” value (ID 6, T = 23h, 37° C., plate configuration #2, drug 0.1 μg/ml (Table 31))?
**A.** The value was “yellow”.

**Q.** What about the “Colour of media in each well” value (ID 6, T = 23h, 37° C., plate configuration #2, drug 0.5 μg/ml (Table 31)) of the same compound?
**A.** The value was “yellow”.

**Q.** What about the “Colour of media in each well” value (ID 6, T = 23h, 37° C., plate configuration #2, drug 1 μg/ml (Table 31)) of the same compound?
**A.** Its value is “yellow”.

**Q.** And the “Colour of media in each well” value (ID 6, T = 23h, 37° C., plate configuration #2, drug 2 μg/ml (Table 31))?
**A.** Its value is “red”.

**Q.** And the “Colour of media in each well” value (ID 6, T = 23h, 37° C., plate configuration #2, drug 4 μg/ml (Table 31))?
**A.** Its value is “red”.

**Q.** What about the “Colour of media in each well” value (ID 6, T~7 h, 37° C., plate configuration #2, Table 35, drug 0.05 μg/ml) of the same compound?
**A.** The value was “yellow”.

**Q.** And the “Colour of media in each well” value (ID 6, T~7 h, 37° C., plate configuration #2, Table 35, drug 0.1 μg/ml)?
**A.** Its value is “yellow”.

**Q.** And the “Colour of media in each well” value (ID 6, T~7 h, 37° C., plate configuration #2, Table 35, drug 0.5 μg/ml)?
**A.** The value was “yellow”.

**Q.** And the “Colour of media in each well” value (ID 6, T~7 h, 37° C., plate configuration #2, Table 35, drug 1 μg/ml)?
**A.** The value was “red”.

**Q.** And the “Colour of media in each well” value (ID 6, T~7 h, 37° C., plate configuration #2, Table 35, drug 2 μg/ml)?
**A.** The value was “red”.

**Q.** And the “Colour of media in each well” value (ID 6, T~7 h, 37° C., plate configuration #2, Table 35, drug 4 μg/ml)?
**A.** Its value is “red”.

**Q.** And the “Colour of media in each well” value (ID 6, T~11 h, 37° C., plate configuration #2, Table 35, drug 0.05 μg/ml)?
**A.** The value was “yellow”.

**Q.** What about the “Colour of media in each well” value (ID 6, T~11 h, 37° C., plate configuration #2, Table 35, drug 0.1 μg/ml) of the same compound?
**A.** Its value is “yellow”.

**Q.** What about the “Colour of media in each well” value (ID 6, T~11 h, 37° C., plate configuration #2, Table 35, drug 0.5 μg/ml) of the same compound?
**A.** Its value is “yellow”.

**Q.** And the “Colour of media in each well” value (ID 6, T~11 h, 37° C., plate configuration #2, Table 35, drug 1 μg/ml)?
**A.** Its value is “red”.

**Q.** And the “Colour of media in each well” value (ID 6, T~11 h, 37° C., plate configuration #2, Table 35, drug 2 μg/ml)?
**A.** The value was “red”.

**Q.** What about the “Colour of media in each well” value (ID 6, T~11 h, 37° C., plate configuration #2, Table 35, drug 4 μg/ml) of the same compound?
**A.** Its value is “red”.

**Q.** And the “Colour of media in each well” value (ID 6, T~23 h, 37° C., plate configuration #2, Table 35, drug 0.05 μg/ml)?
**A.** Its value is “yellow”.

**Q.** What about the “Colour of media in each well” value (ID 6, T~23 h, 37° C., plate configuration #2, Table 35, drug 0.1 μg/ml) of the same compound?
**A.** The value was “yellow”.

**Q.** What about the “Colour of media in each well” value (ID 6, T~23 h, 37° C., plate configuration #2, Table 35, drug 0.5 μg/ml) of the same compound?
**A.** The value was “yellow”.

**Q.** And the “Colour of media in each well” value (ID 6, T~23 h, 37° C., plate configuration #2, Table 35, drug 1 μg/ml)?
**A.** The value was “yellow”.

**Q.** What about the “Colour of media in each well” value (ID 6, T~23 h, 37° C., plate configuration #2, Table 35, drug 2 μg/ml) of the same compound?
**A.** Its value is “red”.

**Q.** What about the “Colour of media in each well” value (ID 6, T~23 h, 37° C., plate configuration #2, Table 35, drug 4 μg/ml) of the same compound?
**A.** Its value is “red”.

**Q.** And the “Colour of media in each well” value (ID 7, T = 23h, 37° C., plate configuration #2, drug 0.05 μg/ml)?
**A.** The value was “yellow”.

**Q.** What about the “Colour of media in each well” value (ID 7, T = 23h, 37° C., plate configuration #2, drug 0.1 μg/ml) of the same compound?
**A.** The value was “yellow”.

**Q.** What about the “Colour of media in each well” value (ID 7, T = 23h, 37° C., plate configuration #2, drug 0.5 μg/ml) of the same compound?
**A.** Its value is “yellow”.

**Q.** And the “Colour of media in each well” value (ID 7, T = 23h, 37° C., plate configuration #2, drug 1 μg/ml)?
**A.** Its value is “red”.

**Q.** And the “Colour of media in each well” value (ID 7, T = 23h, 37° C., plate configuration #2, drug 2 μg/ml)?
**A.** Its value is “red”.

**Q.** And the “Colour of media in each well” value (ID 7, T = 23h, 37° C., plate configuration #2, drug 4 μg/ml)?
**A.** The value was “red”.

**Q.** And the “Colour of media in each well” value (ID 8, T = 23 h, 37° C., plate configuration #2, drug 0.05 μg/ml)?
**A.** The value was “yellow”.

**Q.** What about the “Colour of media in each well” value (ID 8, T = 23 h, 37° C., plate configuration #2, drug 0.1 μg/ml) of the same compound?
**A.** The value was “yellow”.

**Q.** And the “Colour of media in each well” value (ID 8, T = 23 h, 37° C., plate configuration #2, drug 0.5 μg/ml)?
**A.** The value was “red”.

**Q.** What about the “Colour of media in each well” value (ID 8, T = 23 h, 37° C., plate configuration #2, drug 1 μg/ml) of the same compound?
**A.** Its value is “red”.

**Q.** What about the “Colour of media in each well” value (ID 8, T = 23 h, 37° C., plate configuration #2, drug 2 μg/ml) of the same compound?
**A.** Its value is “red”.

**Q.** What about the “Colour of media in each well” value (ID 8, T = 23 h, 37° C., plate configuration #2, drug 4 μg/ml) of the same compound?
**A.** The value was “red”.

**Q.** And the “Colour of media in each well” value (Table 24, sample ID 2, 22 hours at 37° C., plate configuration #1, row 3 of serial dilution 4 ug/ml to 0.05 ug/ml)?
**A.** The value was “red”.

**Q.** And the “Colour of media in each well” value (Table 24, sample ID 2, 22 hours at 37° C., plate configuration #1, row 4 of serial dilution 4 ug/ml to 0.05 ug/ml)?
**A.** Its value is “red”.

**Q.** And the “Colour of media in each well” value (Table 24, sample ID 2, 22 hours at 37° C., plate configuration #1, row 5 of serial dilution 4 ug/ml to 0.05 ug/ml)?
**A.** The value was “red”.

**Q.** And the “Colour of media in each well” value (Table 24, sample ID 2, 22 hours at 37° C., plate configuration #1, row 6 of serial dilution 4 ug/ml to 0.05 ug/ml)?
**A.** Its value is “orange”.

**Q.** What about the “Colour of media in each well” value (Table 24, sample ID 2, 22 hours at 37° C., plate configuration #1, row 7 of serial dilution 4 ug/ml to 0.05 ug/ml) of the same compound?
**A.** The value was “yellow”.

**Q.** What about the “Colour of media in each well” value (Table 24, sample ID 2, 22 hours at 37° C., plate configuration #1, row 8 of serial dilution 4 ug/ml to 0.05 ug/ml) of the same compound?
**A.** Its value is “yellow”.

**Q.** And the MIC (clinical sample ID 1 (streptococci group D), 37° C. for 22 hours, plate configuration #1)?
**A.** The MIC was 0.5 µg/mL.

**Q.** What about the MIC (clinical sample ID 2 (streptococci group D, also coagulase positive Staph), 37° C. for 22 hours, plate configuration #1) of the same compound?
**A.** Its MIC is 1 µg/mL.

**Q.** And the MIC (clinical sample ID 3 (coliform bacteria), 37° C. for 22 hours, plate configuration #1)?
**A.** Its MIC is 1 µg/mL.

**Q.** What about the MIC (clinical sample ID 4 (coagulase positive Staph), 37° C. for 22 hours, plate configuration #1) of the same compound?
**A.** The MIC was 1 µg/mL.

**Q.** What about the MIC (clinical sample ID 5 (streptococci group D), 37° C. for 23 hours, plate configuration #2) of the same compound?
**A.** Its MIC is 0.5 µg/mL.

**Q.** What about the MIC (clinical sample ID 6 (coliform bacteria), 37° C. for 23 hours, plate configuration #2) of the same compound?
**A.** The MIC was 2 µg/mL.

**Q.** What about the MIC (clinical sample ID 7 (coagulase positive Staph), 37° C. for 23 hours, plate configuration #2) of the same compound?
**A.** Its MIC is 1 µg/mL.

**Q.** What about the MIC (clinical sample ID 8 (coagulase negative Staph and Streptococci group D), 37° C. for 23 hours, plate configuration #2) of the same compound?
**A.** Its MIC is 0.5 µg/mL.

From patent publication US10829796B2, “Bacteria identification and antimicrobial susceptibility test” (priority 2015, dated 2020)
